{
  "source": "patent US9707220B2",
  "about": "(The United States of America, as represented by the …, priority 2005, dated 2017)",
  "type_in_all_cases": "in vivo, human",
  "key": {"[1]": {"system": "unmedicated, currently depressed patients meeting the DSM-IV criteria for Major Depressive Disorder (MDD) or Bipolar Disorder (BD)", "assay": "Example 2: double-blind, placebo-controlled, randomized cross-over study, MADRS depression severity", "excerpt": "(§1) Session one was designed to be single-blind during which all subjects received a placebo infusion to allow for a baseline evaluation. The next six sessions were separated into two blocks of three sessions each; one block included a series of three placebo infusions (P Block) and the other a series of three scopolamine infusions (S Block). Individuals were randomized into either the P/S (placebo/scopolamine) series or the S/P (scopolamine/placebo) series, using a double-blind design. In total, all subjects received four placebo infusions and three scopolamine infusions. Prior to infusion, unstructured psychiatric interviews were completed using the Montgomery & Asberg Depression Rating Scale (MADRS) and the Hamilton Anxiety Scale to provide evaluations of depression and anxiety severity upon entering the study (i.e., baseline 1); following the first infusion as an assessment of placebo effects (i.e., baseline 2); after all infusions associated with block 1 (i.e., last evaluation block 1); and after all infusions associated with block 2 (i.e., last evaluation block 2) obtained during a follow-up psychiatric interview. Sessions were scheduled a minimum of 3 days apart and a maximum of 5 days apart when possible.\n(§2) Patient diagnosis and features that contribute to prognosis, including history of response to conventional treatment, chronicity and comorbid anxiety disorders, are summarized in Table III.\n(§3) Session one was designed to be single-blind during which all subjects received a placebo infusion to allow for a baseline evaluation in all subjects. Subsequently, individuals were randomized into either an P/S or S/P double-blind design whereby P is defined as a series of three sessions during which participants received placebo and S is defined as a series of three sessions during which participants received scopolamine. […] Prior to each infusion, unstructured psychiatric interviews were completed using the MADRS and the Hamilton Anxiety Scale. Sessions were scheduled a minimum of 3 days apart and a maximum of 5 days apart when possible. Follow-up psychiatric interviews were obtained to assess the effects of session seven. […] Repeated measures ANOVA was used to evaluate session differences, group differences and session X group effects. In the presence of significant ANOVA results, t-tests were used for within and between group comparisons to identify specific effects."}, "[2]": {"system": "unmedicated, currently depressed patients meeting the DSM-IV criteria for Major Depressive Disorder (MDD) or Bipolar Disorder (BD)", "assay": "Example 2: double-blind, placebo-controlled, randomized cross-over study, Hamilton Anxiety Scale", "excerpt": "as §1, §2, §3"}, "[3]": {"system": "unmedicated, currently depressed patients meeting criteria for Major Depressive Disorder (MDD) or Bipolar Disorder (BD)", "assay": "Example 1: double-blind randomized dose-finding study, 15-minute intravenous scopolamine infusions, MADRS depression severity in patients", "parameters": "key to MADRS score, Follow-up / MADRS score, Session 3, Pt. MEAN / MADRS score, Session 4, Pt. MEAN / MADRS score, Follow-up, Pt. MEAN / MADRS score, Post 2 μg/kg / MADRS score, Post 3 μg/kg / MADRS score, Post 4 μg/kg / MADRS score, Post 2 μg/kg, MEAN / MADRS score, Post 3 μg/kg, MEAN: Montgomery & Asberg Depression Rating Scale (MADRS) total score", "experimental": "Prior to each infusion, a psychiatric interview was performed using the Montgomery & Asberg Depression Rating Scale (MADRS) to monitor depression severity across sessions. Participants were monitored continuously for the development of clinically relevant side effects. Sessions were scheduled a minimum of 3 days apart and a maximum of 5 days apart when possible. Follow-up psychiatric interviews were obtained when patients were available.\nComparisons also were made between MADRS scores obtained before and after each specific dose. […] Post evaluations for the last session were provided by the follow-up psychiatric interviews when available."}, "[4]": {"conditions": "4.0 μg/kg iv, three infusions, p<0.005"}, "[5]": {"conditions": "both treatment groups, no change following placebo"}},
  "note": "Several values for one entry are separate records, joined by “and”; a condition that tells them apart may be missing. Identical values can stand only once. Marks after values point to notes of the source that are not given here.",
  "data": [
    {"smiles": "CN1C2C[C@H](OC(=O)C(CO)c3ccccc3)CC1[C@H]1OC21", "note": "(stereo partly shown) [scopolamine]", "values": [
      {"measurement": "MADRS depression severity, P/S group at end of Block 2 (scopolamine) vs baseline measures and end of Block 1", "setting": "[1]; [4]", "result": "significantly lower"},
      {"measurement": "MADRS depression severity, S/P group at end of Block 1 (scopolamine) vs baseline 1 and baseline 2", "setting": "[1]; [4]", "result": "significantly lower"},
      {"measurement": "MADRS depression severity, S/P group vs P/S group at last evaluation of Block 1", "setting": "[1]; 4.0 μg/kg iv, three infusions, t=5.3, p<0.0001", "result": "significantly lower"},
      {"measurement": "Depressive symptoms (mean MADRS scores, FIG. 2) following treatment", "setting": "[1]; [5]", "result": "significant improvement"},
      {"measurement": "MADRS depression severity, S/P group at end of Block 2 (placebo after scopolamine) vs baseline measures", "setting": "[1]; persistence of effect, p<0.005", "result": "significantly lower"},
      {"measurement": "Hamilton Anxiety rating, P/S group at end of Block 2 (scopolamine) vs baseline 1, baseline 2 and end of Block 1", "setting": "[2]; 4.0 μg/kg iv, three infusions, p<0.001, p=0.02, p=0.002", "result": "significantly lower"},
      {"measurement": "Hamilton Anxiety rating, S/P group at end of Block 1 (scopolamine) vs baseline measures", "setting": "[2]; 4.0 μg/kg iv, three infusions, p<0.01", "result": "significantly lower"},
      {"measurement": "Hamilton Anxiety score, S/P group vs P/S group at last evaluation of Block 1", "setting": "[2]; 4.0 μg/kg iv, three infusions, t=7.29, p=0.04", "result": "significantly lower"},
      {"measurement": "Anxiety symptoms (mean Hamilton Anxiety scores, FIG. 3) following treatment", "setting": "[2]; [5]", "result": "significant improvement"},
      {"measurement": "Hamilton Anxiety rating, S/P group at end of Block 2 (placebo after scopolamine) vs baseline", "setting": "[2]; persistence of effect, p=0.01", "result": "significantly lower"},
      {"measurement": "MADRS score, Follow-up", "setting": "[3]; individual patient, follow-up interview after all four sessions", "result": "37 and 16 and 2 and 9 and 14"},
      {"measurement": "MADRS score, Session 2", "setting": "[3]; individual patient, scored before the Session 2 infusion, after the Session 1 dose, iv 2, 3 or 4 μg/kg or placebo in random order, sessions 3-5 days apart", "result": "36^d and 44^a and 25^a and 32^C and 18^b and 29^C and 15^d"},
      {"measurement": "MADRS score, Session 3", "setting": "[3]; individual patient, scored before the Session 3 infusion, after two earlier sessions, doses in random order", "result": "35^b and 34^d and 31^b and 4^C and 25^a and 14^a and 22^d and 7^a"},
      {"measurement": "MADRS score, Session 4", "setting": "[3]; individual patient, scored before the Session 4 infusion, after three earlier sessions, doses in random order", "result": "35^a and 22^b and 32^d and 8^d and 28^d and 11^d and 17^a and 7^b"},
      {"measurement": "MADRS score, Post 2 μg/kg", "setting": "[3]; individual patient, scored in the next session, 3 to 5 days after 2 μg/kg iv", "result": "37 and 32 (2×) and 4 and 14 and 29 and 35"},
      {"measurement": "MADRS score, Post 3 μg/kg", "setting": "[3]; individual patient, scored in the next session, 3 to 5 days after 3 μg/kg iv", "result": "44 and 25 (2×) and 8 and 18 and 22 and 15 and 36"},
      {"measurement": "MADRS score, Post 4 μg/kg", "setting": "[3]; individual patient, scored in the next session, 3 to 5 days after 4 μg/kg iv", "result": "22 and 16 and 2 and 9 and 14 and 17 and 7 and 35"},
      {"measurement": "MADRS score, Session 3, Pt. MEAN", "setting": "[3]; mean of 8 patients, irrespective of session dose", "result": 21.5},
      {"measurement": "MADRS score, Session 4, Pt. MEAN", "setting": "[3]; mean of 8 patients, irrespective of session dose, significantly less than baseline, p < 0.05", "result": "20.0*"},
      {"measurement": "MADRS score, Follow-up, Pt. MEAN", "setting": "[3]; mean of patients with follow-up, significantly less than baseline, p < 0.05", "result": "15.6*"},
      {"measurement": "MADRS scores post 4.0 μg/kg compared to baseline and pre-4.0 μg/kg measures", "setting": "[3]; p=0.0015 vs baseline, p=0.018 vs pre-dose", "result": "significantly lower"},
      {"measurement": "MADRS scores following session four compared to session one baseline", "setting": "[3]; patient group, post-hoc t-test, p=0.01", "result": "significantly lower"},
      {"measurement": "MADRS scores following session three compared to session one baseline", "setting": "[3]; patient group, post-hoc t-test, p=0.03", "result": "significantly lower"},
      {"measurement": "Antidepressant effect, MADRS across sessions (summary)", "setting": "[3]; patient group, effect primarily after the 4.0 μg/kg dose", "result": "robust and rapid antidepressant effects"},
      {"measurement": "MADRS score, Post 2 μg/kg, MEAN", "setting": "[3]; patient mean, baseline mean 29.00, pre-dose mean 22.38", "result": 26.14},
      {"measurement": "MADRS score, Post 4 μg/kg, MEAN", "setting": "[3]; patient mean, baseline mean 29.00, pre-dose mean 23.25, p = 0.0015 vs baseline, p = 0.018 vs pre-session", "result": "15.25^#*"},
      {"measurement": "MADRS score, Post 3 μg/kg, MEAN", "setting": "[3]; patient mean, baseline mean 29.00, pre-dose mean 27.63", "result": 24.13},
      {"measurement": "MADRS scores post 2.0 and 3.0 μg/kg compared to baseline and pre-dose", "setting": "[3]; t-tests, patient group", "result": "No other differences were significant"}
    ]}
  ]
}
